Measurements: article PMC8037948, “Assessing the In Vitro Inhibitory Effects on Key Enzymes Linked to Type-2 Diabetes and Obesity and Protein Glycation by Phenolic Compounds of Lauraceae Plant Species Endemic to the Laurisilva Forest” (Molecules, 2021)

Legend:
[1] = biological target: T1, rat α-glucosidase (intestinal acetone powder from rat); experiment: p-nitrophenyl alpha-D-glucopyranoside hydrolysis, absorbance at […] nm; type: biochemical; conditions: alpha-pNPG, 0.1 M phosphate pH 6.9, 37 °C, 20 min; crude intestinal extract
T1 construct: gene Si; supernatant of rat intestinal acetone powder (Sigma-Aldrich), crude extract; several alpha-glucosidases

[2] = biological target: T2, human aldose reductase (HAR) (Homo sapiens, UniProt P15121); experiment: NADPH absorbance at […] nm; type: biochemical
T2 construct: gene AKR1B1; commercial enzyme from Prozomix

SMILES	α-Glucosidase [1]	IC50 [2]
C[C@H]1O[C@H](O[C@H]2[C@H](O)[C@@H](O)[C@@H](O[C@H]3[C@H](O)[C@@H](O)C(O)O[C@@H]3CO)O[C@@H]2CO)[C@H](O)[C@@H](O)[C@@H]1N[C@H]1C=C(CO)[C@@H](O)[C@H](O)[C@H]1O (stereo partly drawn) [Acarbose]	0.12 ± 0.01 mg/mL	
OC[C@H]1NC[C@H](O)[C@@H](O)[C@@H]1O [1-Deoxynojirimycin]	0.01 ± 0.01 mg/mL	
Oc1cc(O)c2c(c1)O[C@H](c1ccc(O)c(O)c1)[C@@H](O)C2 [(+)-Catechin]		2.62 mM
